Where a name gives a salt, the structure may show the parent alone.

The values that follow come from patent US10335373B2, “Tamper resistant and dose-dumping resistant pharmaceutical dosage form” (GRÜNENTHAL GMBH, priority 2012, dated 2019).

With `C=CCN1CC[C@]23c4c5ccc(O)c4O[C@H]2C(=O)CC[C@@]3(O)[C@H]1C5` [naloxone hydrochloride], the “solubility in aqueous ethanol” value is listed as “soluble”.
